{"source": "patent US7612071B2", "about": "“Compositions and methods employing aminopterin” (Syntrix Biosystems, Inc., priority 2004, dated 2009)", "key": {"[1]": {"test_system": "standard and high-risk ALL", "conditions": "for Coefficient of variation of toxicity of aminopterin as percent of that of methotrexate: both oral; for Therapeutic Component: Percentage effective (no evidence of a disease manifestation): greater than 12 months treatment, AMT 4 mg/m^2/wk high risk ALL (n=20), MTX 100 mg/m^2/wk standard risk ALL (n=20)"}, "[2]": {"conditions": "AMT 2 mg/m^2, adult patients, n=13, prior art; cited from earlier work"}, "[3]": {"conditions": "AMT 2 mg/m^2 PO x 2 (n=75), MTX 25 mg/m^2 PO x 4 (n=41)"}, "[4]": {"conditions": "AMT 2 mg/m^2 PO x 2 (n=81), MTX 25 mg/m^2 PO x 4 (n=42)"}, "[5]": {"conditions": "AMT 2 mg/m^2 PO x 2 (n=104), MTX 25 mg/m^2 PO x 4 (n=63)"}, "[6]": {"conditions": "AMT 2 mg/m^2 PO x 2, MTX 25 mg/m^2 PO x 4"}, "[7]": {"conditions": "eAMT and eMTX (marrow exposure)"}}, "note": "Like-named read-outs stand apart in the source and are kept apart here.", "data": [{"smiles": "Nc1nc(N)c2nc(CNc3ccc(C(=O)N[C@@H](CCC(=O)O)C(=O)O)cc3)cnc2n1", "note": "[AMT]", "values": [{"measurement": "Event-free survival (EFS) at 24-months, Kaplan Meier", "setting": "[1]; 25 high risk patients receiving aminopterin, standard risk patients receiving methotrexate", "value": 93, "unit": "%"}, {"measurement": "Coefficient of variation of toxicity, absolute neutrophil count in consolidation", "setting": "[1]; [3]", "value": 80, "unit": "%"}, {"measurement": "Mean absolute neutrophil count in consolidation", "setting": "[1]; [3]", "value": 1667, "unit": "cells/μL"}, {"measurement": "Coefficient of variation of toxicity, platelet counts in consolidation", "setting": "[1]; [4]", "value": 58, "unit": "%"}, {"measurement": "Mean platelet counts in consolidation", "setting": "[1]; [4]", "value": 316, "unit": "cells × 10^3/μL"}, {"measurement": "Coefficient of variation of toxicity, level of liver enzymes above normal", "setting": "[1]; [5]", "value": 25, "unit": "%"}, {"measurement": "Mean level of liver enzymes above normal", "setting": "[1]; [5]", "value": 188, "unit": "IU/L ALT"}, {"measurement": "Coefficient of variation of toxicity, level of liver enzymes above normal", "setting": "[1]; AMT 2 mg/m^2 PO x 2 (n=104), MTX 25 mg/m^2 PO x 4 (n=63), listed as aminopterin", "value": 25, "unit": "%"}, {"measurement": "Coefficient of variation Relative To The Invention, absolute neutrophil count in consolidation", "setting": "[1]; [6]", "value": 1.0}, {"measurement": "Coefficient of variation Relative To The Invention, level of liver enzymes above normal", "setting": "[1]; [6]", "value": 1.0}, {"measurement": "Coefficient of variation Relative To The Invention, platelet counts in consolidation", "setting": "[1]; [6]", "value": 1.0}, {"measurement": "Patients with severe hepatotoxicity (liver enzyme elevations greater than five times normal)", "setting": "[1]; AMT 4 mg/m^2/wk (n=104), MTX 100 mg/m^2/wk (n=63)", "value": 5.8, "unit": "%"}, {"measurement": "Therapeutic Component: Antifolate dose", "setting": "[1]; AMT high risk ALL (n=20), MTX standard risk ALL (n=20), Table V", "value": "4 mg/m^2/wk:"}, {"measurement": "Therapeutic Component: Antifolate dose with same efficacy as MTX at 100 mg/m^2/wk", "setting": "[1]; AMT high risk ALL (n=20), MTX standard risk ALL (n=20), Table VI", "value": 4, "unit": "mg/m^2/wk"}, {"measurement": "Therapeutic Index", "setting": "[1]; Any elevation of liver enzymes", "value": 1}, {"measurement": "Toxicity Component: Antifolate dose with same toxicity as MTX at 100 mg/m^2/wk", "setting": "[1]; Any elevation of liver enzymes", "value": 4, "unit": "mg/m^2/wk"}, {"measurement": "Therapeutic Index", "setting": "[1]; Elevations in liver enzymes >5 times normal", "value": 1}, {"measurement": "Toxicity Component: Antifolate dose causing 5.8% of the population to have the toxicity", "setting": "[1]; Elevations in liver enzymes >5 times normal (severe hepatotoxicity)", "value": 4, "unit": "mg/m^2/wk"}, {"measurement": "Therapeutic Index", "setting": "[1]; Hospital admissions", "value": 1}, {"measurement": "Toxicity Component: Antifolate dose with same toxicity as MTX at 100 mg/m^2/wk", "setting": "[1]; Hospital admissions", "value": 4, "unit": "mg/m^2/wk"}, {"measurement": "Therapeutic Index", "setting": "[1]; Mucositis", "value": 1}, {"measurement": "Toxicity Component: Antifolate dose with same toxicity as MTX at 100 mg/m^2/wk", "setting": "[1]; Mucositis", "value": 4, "unit": "mg/m^2/wk"}, {"measurement": "Therapeutic Index", "setting": "[1]; Myelosuppression", "value": 1}, {"measurement": "Toxicity Component: Antifolate dose with same toxicity as MTX at 100 mg/m^2/wk", "setting": "[1]; Myelosuppression", "value": 4, "unit": "mg/m^2/wk"}, {"measurement": "Therapeutic Index", "setting": "[1]; Neutropenia", "value": 1}, {"measurement": "Toxicity Component: Antifolate dose with same toxicity as MTX at 100 mg/m^2/wk", "setting": "[1]; Neutropenia", "value": 4, "unit": "mg/m^2/wk"}, {"measurement": "Therapeutic Index", "setting": "[1]; Thrombocytopenia", "value": 1}, {"measurement": "Toxicity Component: Antifolate dose with same toxicity as MTX at 100 mg/m^2/wk", "setting": "[1]; Thrombocytopenia", "value": 4, "unit": "mg/m^2/wk"}, {"measurement": "Therapeutic Index", "setting": "[1]; Treatment interruptions", "value": 1}, {"measurement": "Toxicity Component: Antifolate dose with same toxicity as MTX at 100 mg/m^2/wk", "setting": "[1]; Treatment interruptions", "value": 4, "unit": "mg/m^2/wk"}, {"measurement": "Therapeutic Index", "setting": "[1]; [7]", "value": 1}, {"measurement": "Toxicity Component: Antifolate dose with same toxicity as MTX at 100 mg/m^2/wk", "setting": "[1]; [7]", "value": 4, "unit": "mg/m^2/wk"}, {"measurement": "Coefficient of variation of toxicity of aminopterin as percent of that of methotrexate", "setting": "[1]; elevated liver enzymes, 2 mg/m^2 aminopterin vs 25 mg/m^2 methotrexate", "value": 71, "unit": "%"}, {"measurement": "Coefficient of variation of toxicity of aminopterin as percent of that of methotrexate", "setting": "[1]; erythrocyte antifolate levels, 2 mg/m^2 aminopterin vs 20 mg/m^2 methotrexate", "value": 12.4, "unit": "%"}, {"measurement": "Survival rate of high risk patients vs standard risk patients treated with equipotent methotrexate", "setting": "[1]; follow-up period of up to 15 months, 20 patients per arm", "value": "equivalent survival rate"}, {"measurement": "Therapeutic Component: Percentage effective (no evidence of a disease manifestation)", "setting": "[1]", "value": 100, "unit": "% effective at"}, {"measurement": "Therapeutic Component: Percentage effective (no evidence of a disease manifestation)", "setting": "[1]; listed as aminopterin", "value": 100, "unit": "%"}, {"measurement": "Interpatient oral bioavailability (%)", "setting": "[2]", "value": 85, "unit": "%"}, {"measurement": "Maximum (%) oral bioavailability", "setting": "[2]", "value": 163, "unit": "%"}, {"measurement": "Minimum (%) oral bioavailability", "setting": "[2]", "value": 32, "unit": "%"}]}]}
